Here are results for 59 molecules from patent US7829063B2, “Development of molecular imaging probes for carbonic anhydrase-IX using click chemistry” (Siemens Medical Solutions USA, Inc., priority 2007, dated 2010).

Bounds are passed on as bounds.

This test concerns the target T1, CA-IX (Homo sapiens, UniProt Q16790).
T1 construct: His tag (C); purchased R&D Systems Inc. 2188-CA; host or cells: mouse myeloma cell line NS0
Put plainly: CA-IX combinatorial library screening, competitive fluorescence-based assay with dansylamide (DNSA). The following applies: 1 h; Table 1, Libraries 1-3; sample concentrations 100 nM and 1000 nM, DNSA 200 μM; screening at 1 μM; read-out: In Vitro Binding Assay (Library Screening). Type of test: binding. The protocol: General. CA-IX human recombinant enzyme was expressed with a C-terminal His tag in a mouse myeloma cell line, NS0 (R&D Systems Inc., catalog number 2188-CA). The human red blood cells were obtained from Research Blood Components, LLC. All absorbance measurements were performed on a SPECTRA MAX M2 plate reader at 25° C. The LC/MS analyses were performed on an Agilent 1100 series LC/MSD (SL) using a 30×2.1 mm Zorbax C8 column with a Phenomenex C18 pre-column. Compound detection was accomplished by electrospray mass spectroscopy in positive selected ion mode (LC/MS-SIM). The elution solvents were acetonitrile and water, contained 0.05% TFA. Nuclear magnetic resonance (NMR) spectra were obtained on a Bruker AMX 300 MHz spectrometer or a Varian 400. 19F NMR spectra were recorded on a Bruker AMX 282.35 MHz or a Varian 400 spectrometer. The mass spectra were recorded on an Agilent 1100 series LC/MSD with electrospray mass spectroscopic detection. Flash column chromatography was performed on Merck silica gel (40-63 μm) using the solvent system indicated. The radiochemical and chemical purities were analyzed by RP-HPLC.
General Combinatorial Library Screening Protocol for CA-IX
The CA-IX screening assay was employed for testing libraries derived from the various “anchor” molecules, using ethoxzolamide as a positive control. The assay was performed at a substrate (dansylamide, DNSA) concentration of 200 μM, and sample concentrations of 100 nM and 1000 nM, respectively. A modified competitive fluorescence-based assay (A. Jain, S. G. Huang, G. M. Whitesides, J. Am. Chem. Soc. 1994, 116, 5057) was used to measure CA-IX activity. The enzymatic assay was carried out in a 96-well plate. To the wells, deionized water, 40 μL of phosphate buffer (250 mM, pH 7.4), 2.4 μL of CA-IX (17 μM), and 2 μL or 20 μL of inhibitor (concentration of 100 nM or 1000 nM) were added to achieve a final volume of 180 μL. Reactions were initiated by adding 20 μL DNSA (200 μM) to each well and the plate was incubated at 25° C. for 1 hour. The fluorescence intensities from each well of the plate were then read at 460 nm using a plate reader with an excitation wavelength of 290 nm.
Take `CCCOC(=O)c1ccc(NC(=O)Cn2cc(-c3ccc(S(N)(=O)=O)cc3)nn2)cc1` [DHK3]: the inhibition at 1 µM is under 40%.

Consider `COC(=O)[C@H](CSCc1ccccc1)NC(=O)Cn1cc(-c2ccc(S(N)(=O)=O)cc2)nn1` [DHK4], for which the inhibition at 1 µM is under 40%.

On to `NS(=O)(=O)c1ccc(-c2cn(CCN3CCOCC3)nn2)cc1` [DHK5], for which the inhibition at 1 µM was under 40%.

Consider `NS(=O)(=O)c1ccc(-c2cn(CC(O)CN3C(=O)c4ccccc4C3=O)nn2)cc1` (centres unmarked) [DHK8], for which the inhibition at 1 µM is under 40%.

As for `CC(C)[C@@H](C(=O)NCc1cc(F)ccc1F)n1cc(-c2ccc(S(N)(=O)=O)cc2)nn1` [DHK11], the inhibition at 1 µM is under 40%.

As for `CC(C)C[C@@H](C(=O)NCc1ccccc1)n1cc(-c2ccc(S(N)(=O)=O)cc2)nn1` [DHK12], the inhibition at 1 µM is under 40%.

As for `CC(CN(C)C)Cn1cc(-c2ccc(S(N)(=O)=O)cc2)nn1` (centres unmarked) [DHK14], the inhibition at 1 µM was under 40%.

Consider `CC1CCCN(C(=O)C(C(C)C)n2cc(-c3ccc(S(N)(=O)=O)cc3)nn2)C1` (centres unmarked) [DHK15], for which the inhibition at 1 µM was under 40%.

Regarding `NS(=O)(=O)c1ccc(-c2cn(Cc3cccc(Br)c3)nn2)cc1` [DHK18], the inhibition at 1 µM is under 40%.

With `Cc1ccc(CNC(=O)[C@@H](C(C)C)n2cc(-c3ccc(S(N)(=O)=O)cc3)nn2)cc1F` [DHK20], the inhibition at 1 µM was under 40%.

For `CCOC(=O)c1ccc(Cn2cc(-c3ccc(S(N)(=O)=O)cc3)nn2)cc1` [DHK22], the inhibition at 1 µM was under 40%.

As for `CC(C)[C@H](C(=O)NCc1ccccc1)n1cc(-c2ccc(S(N)(=O)=O)cc2)nn1` [DHK23], the inhibition at 1 µM was under 40%.

In the case of `COc1ccc2nc3cc(Cl)ccc3c(NCCCn3cc(-c4ccc(S(N)(=O)=O)cc4)nn3)c2c1` [DHK24], the inhibition at 1 µM is under 40%.

Consider `Cc1cc(NC(=O)Cn2cc(-c3ccc(S(N)(=O)=O)cc3)nn2)n(C)n1` [DHK26], for which the inhibition at 1 µM is under 40%.

Turning to `NS(=O)(=O)c1ccc(-c2cn(Cc3nc4ccccc4[nH]3)nn2)cc1` [DHK27], the inhibition at 1 µM is under 40%.

With `NS(=O)(=O)c1ccc(C(=O)NCc2cn(CCN3CCOCC3)nn2)cc1` [DHK34], the inhibition at 1 µM was under 40%.

As to `Cc1ccnc(NC(=O)[C@H](Cc2ccccc2)n2cc(CNC(=O)c3ccc(S(N)(=O)=O)cc3)nn2)c1` [DHK36], the inhibition at 1 µM was under 40%.

As for `NS(=O)(=O)c1ccc(C(=O)NCc2cn(-c3cccc(C(=O)NN4CCOCC4)c3)nn2)cc1` [DHK39], the inhibition at 1 µM was under 40%.

On to `CC(C)C(C(=O)NCc1cc(F)ccc1F)n1cc(CNC(=O)c2ccc(S(N)(=O)=O)cc2)nn1` (centres unmarked) [DHK40], for which the inhibition at 1 µM was under 40%.

Turning to `CC(C)C[C@@H](C(=O)NCc1ccccc1)n1cc(CNC(=O)c2ccc(S(N)(=O)=O)cc2)nn1` [DHK41], the inhibition at 1 µM is under 40%.

`CC(CN(C)C)Cn1cc(CNC(=O)c2ccc(S(N)(=O)=O)cc2)nn1` (centres unmarked) [DHK43]: the inhibition at 1 µM is under 40%.

Take `CC1CCCN(C(=O)C(C(C)C)n2cc(CNC(=O)c3ccc(S(N)(=O)=O)cc3)nn2)C1` (centres unmarked) [DHK44]: the inhibition at 1 µM was under 40%.

As to `Cc1ccc(C)c(CNC(=O)[C@H](Cc2ccccc2)n2cc(CNC(=O)c3ccc(S(N)(=O)=O)cc3)nn2)c1` [DHK45], the inhibition at 1 µM was under 40%.

Take `NS(=O)(=O)c1ccc(C(=O)NCc2cn(Cc3cccc(Br)c3)nn2)cc1` [DHK47]: the inhibition at 1 µM was under 40%.

Take `NS(=O)(=O)c1ccc(C(=O)NCc2cn(Cn3c(=S)sc4ccccc43)nn2)cc1` [DHK48]: the inhibition at 1 µM is under 40%.

For the molecule `Cc1ccc(CNC(=O)C(C(C)C)n2cc(CNC(=O)c3ccc(S(N)(=O)=O)cc3)nn2)cc1F` (centres unmarked) [DHK49], the inhibition at 1 µM was under 40%.

Take `CC(C)[C@@H](C(=O)NC1CCCCC1)n1cc(CNC(=O)c2ccc(S(N)(=O)=O)cc2)nn1` [DHK50]: the inhibition at 1 µM is under 40%.

With `CCOC(=O)c1ccc(Cn2cc(CNC(=O)c3ccc(S(N)(=O)=O)cc3)nn2)cc1` [DHK51], the inhibition at 1 µM is under 40%.

On to `CC(C)[C@@H](C(=O)NCc1ccccc1)n1cc(CNC(=O)c2ccc(S(N)(=O)=O)cc2)nn1` [DHK52], for which the inhibition at 1 µM is under 40%.

As for `CC(C)[C@@H](C(=O)NCc1ccco1)n1cc(CNC(=O)c2ccc(S(N)(=O)=O)cc2)nn1` [DHK54], the inhibition at 1 µM was under 40%.

In the case of `NS(=O)(=O)c1ccc(C(=O)NCc2cn(Cn3nnc4ccccc43)nn2)cc1` [DHK55], the inhibition at 1 µM is under 40%.

As to `COC(=O)C(Cc1ccc(C(=O)O)cc1)n1cc(CNC(=O)c2ccc(S(N)(=O)=O)cc2)nn1` (centres unmarked) [DHK56], the inhibition at 1 µM was under 40%.

Turning to `CCCOC(=O)c1ccc(NC(=O)Cn2cc(CNC(=O)c3ccc(S(N)(=O)=O)cc3)nn2)cc1` [DHK57], the inhibition at 1 µM was under 40%.

`CC(C)C(C(=O)NCCCN1CCOCC1)n1cc(CNC(=O)c2ccc(S(N)(=O)=O)cc2)nn1` (centres unmarked) [DHK58]: the inhibition at 1 µM is under 40%.

For `CC(C)(C)c1cc(C(=O)Cn2cc(CNC(=O)c3ccc(S(N)(=O)=O)cc3)nn2)cc(C(C)(C)C)c1O` [DHK59], the inhibition at 1 µM was under 40%.

`CC(C)[C@@H](C(=O)O)n1cc(CNC(=O)c2ccc(S(N)(=O)=O)cc2)nn1` [DHK60]: the inhibition at 1 µM was under 40%.

Regarding `CC(C)[C@@H](C(=O)Nc1ccc(-c2ccccc2)cc1)n1cc(CNC(=O)c2ccc(S(N)(=O)=O)cc2)nn1` [DHK61], the inhibition at 1 µM is under 40%.

For `NS(=O)(=O)c1ccc(-c2cn(CCOc3ccc4ccc(=O)oc4c3)nn2)cc1` [DHK63], the inhibition at 1 µM was under 40%.

Turning to `NS(=O)(=O)c1ccc(-c2cn(CC(=O)n3ncc4ccccc43)nn2)cc1` [DHK65], the inhibition at 1 µM was under 40%.

On to `CC(C)[C@@H](C(=O)O)n1cc(-c2ccc(S(N)(=O)=O)cc2)nn1` [DHK66], for which the inhibition at 1 µM was under 40%.

For `COC(=O)C(Cc1ccc(C(=O)O)cc1)n1cc(-c2ccc(S(N)(=O)=O)cc2)nn1` (centres unmarked) [DHK67], the inhibition at 1 µM is under 40%.

`CCCCCC[C@H](O)[C@@H](O)c1ccc(Cn2cc(-c3ccc(S(N)(=O)=O)cc3)nn2)cc1` [DHK70]: the inhibition at 1 µM was under 40%.

For `NS(=O)(=O)c1ccc(-c2cn(-c3ccnc4cc(Cl)ccc34)nn2)cc1` [DHK71], the inhibition at 1 µM was under 40%.

Take `C=CC1C[N@@]2CCC1CC2[C@@H](c1ccnc2ccc(OC)cc12)n1cc(-c2ccc(S(N)(=O)=O)cc2)nn1` (some centres unmarked) [DHK72]: the inhibition at 1 µM is under 40%.

For `NS(=O)(=O)c1ccc(-c2cn(CCCCCCO)nn2)cc1` [DHK73], the inhibition at 1 µM is under 40%.

Regarding `CC(C)C(C(=O)NCCc1ccsc1)n1cc(-c2ccc(S(N)(=O)=O)cc2)nn1` (centres unmarked) [DHK76], the inhibition at 1 µM was under 40%.

Regarding `NS(=O)(=O)c1ccc(-c2cn(CCn3c(=O)[nH]c4ccccc4c3=O)nn2)cc1` [DHK78], the inhibition at 1 µM is under 40%.

As to `NS(=O)(=O)c1ccc(-c2cn(C3CCN(C(=O)/C=C/c4ccccc4)CC3)nn2)cc1` [DHK82], the inhibition at 1 µM is under 40%.

As for `CCCCCC[C@H](O)[C@@H](O)c1ccc(Cn2cc(CNC(=O)c3ccc(S(N)(=O)=O)cc3)nn2)cc1` [DHK85], the inhibition at 1 µM was under 40%.

In the case of `NS(=O)(=O)c1ccc(C(=O)NCc2cn(-c3ccnc4cc(Cl)ccc34)nn2)cc1` [DHK86], the inhibition at 1 µM was under 40%.

In the case of `C=CC1C[N@@]2CCC1CC2[C@@H](c1ccnc2ccc(OC)cc12)n1cc(CNC(=O)c2ccc(S(N)(=O)=O)cc2)nn1` (some centres unmarked) [DHK87], the inhibition at 1 µM is under 40%.

`NS(=O)(=O)c1ccc(C(=O)NCc2cn(CCCCCCO)nn2)cc1` [DHK88]: the inhibition at 1 µM is under 40%.

`NS(=O)(=O)c1ccc(C(=O)NCc2cn(C(c3ccccc3)[C@@H](OC/C=C/c3ccccc3)c3ccccc3)nn2)cc1` (some centres unmarked) [DHK90]: the inhibition at 1 µM is under 40%.

Consider `CC(C)[C@@H](C(=O)NCCc1ccsc1)n1cc(CNC(=O)c2ccc(S(N)(=O)=O)cc2)nn1` [DHK91], for which the inhibition at 1 µM was under 40%.

For `NS(=O)(=O)c1ccc(C(=O)NCc2cn(CC(=O)NC(Cc3cnc[nH]3)C(=O)O)nn2)cc1` (centres unmarked) [DHK92], the inhibition at 1 µM was under 40%.

Take `NS(=O)(=O)c1ccc(C(=O)NCc2cn(CCn3c(=O)[nH]c4ccccc4c3=O)nn2)cc1` [DHK93]: the inhibition at 1 µM is under 40%.

As for `NS(=O)(=O)c1ccc(C(=O)NCc2cn(CC(=O)N3CCN(c4cc(Cl)cc(Cl)c4)CC3)nn2)cc1` [DHK94], the inhibition at 1 µM was under 40%.

`NCCCn1cc(CNC(=O)c2ccc(S(N)(=O)=O)cc2)nn1` [DHK95]: the inhibition at 1 µM is under 40%.

For the molecule `NS(=O)(=O)c1ccc(C(=O)NCc2cn(C3CCN(S(=O)(=O)/C=C/c4ccccc4)CC3)nn2)cc1` [DHK96], the inhibition at 1 µM is under 40%.
